We go through 43 substances from patent US7785828B1 (priority 2003, dated 2010).

The first assay concerns Fusarium graminearum. Type of assay: cell-based. The settings on record: Table 2B (Dm-AMP1 based libraries); improvement compared to reference defensin protein (Rs-AFP2 for Table 2B [sic]).
In the case of “ELCERASKTWTGNCGNTKHCDNQCRSWESAAHGACHKRSGKWKCFCYFNC (Defensin like) [L3-87]”, the “Activity (1): antifungal activity of the NP against Fusarium graminearium” value (“Activity (1): antifungal activity” below) is listed as “++ (++ indicates a >5- to 10-fold improvement)”.

In the case of “ELCERASLTWTGNCGNTKHCDTQCKSWEGAKHGACHKRSGKWKCFCYFNC (Defensin like) [L3-96]”, the “Activity (1): antifungal activity” value is “+ (+ indicates a 1- to 5-fold improvement in activity compared to a reference defensin protein)”.

Turning to “NLCEKASKTWTGNCGNTKHCDNQCKNWESAAHGACHKRNGKWKCFCYFNC (Defensin like) [L3-79]”, the “Activity (1): antifungal activity” value is listed as “++ (++ indicates a >5- to 10-fold improvement)”.

Turning to “NLCEKASKTWTGNCGNTKHCDNQCRSWEGAKHGACMKRSGKWKCFCYFNC [L10-76]”, the “Activity (1): antifungal activity” value was “++ (++ indicates a >5- to 10-fold improvement)”.

For the substance “NLCERASKTWAGNCGNTKHCDNQCRSWEGAKHGACHVRNGKWKCFCYFNC (Defensin like) [L10-33]”, the “Activity (1): antifungal activity” value is reported as “+ (+ indicates a 1- to 5-fold improvement in activity compared to a reference defensin protein)”.

With “NLCERASKTWSGDCGNTKHCDNQCRNWEGAKHGACHKRNGKWKCFCYFNC (Defensin like) [L10-62]”, the “Activity (1): antifungal activity” value is given as “++ (++ indicates a >5- to 10-fold improvement)”.

With “NLCERASKTWSSNCGNTKHCDTQCKNWEGAKHGACHVRNGKWKCFCYFNC (Defensin like) [L10-60]”, the “Activity (1): antifungal activity” value is “++ (++ indicates a >5- to 10-fold improvement)”.

For the substance “NLCERASKTWTGNCGNTKHCDNQCKNWEGAAHGACHKRSGKWKCFCYFNC (Defensin like) [L10-80]”, the “Activity (1): antifungal activity” value is “++ (++ indicates a >5- to 10-fold improvement)”.

Regarding “NLCERASKTWTGNCGNTKHCDNQCKNWEGAKHGACHKRSGKWKCFCYFNC (Defensin like) [L10-25]”, the “Activity (1): antifungal activity” value is on record as “+ (+ indicates a 1- to 5-fold improvement in activity compared to a reference defensin protein)”.

For “NLCERASKTWTGNCGNTKHCDNQCKNWEGAKHGACHVRNGKHKCFCYFNC (Defensin like) [L6-08]”, the “Activity (1): antifungal activity” value is “+++ (+++ indicates a >10-fold improvement)”.

Consider “NLCERASKTWTGNCGNTKHCDNQCKNWEGAKHGACHVRNGKWKCFCYFNC (Defensin like) [L6-03]”, for which the “Activity (1): antifungal activity” value was “+++ (+++ indicates a >10-fold improvement)”.

On to “NLCERASKTWTGNCGNTKHCDNQCKNWEGAKHGACHVRSGKHKCFCYFNC (Defensin like) [L6-23]”, for which the “Activity (1): antifungal activity” value is “++ (++ indicates a >5- to 10-fold improvement)”.

As for “NLCERASKTWTGNCGNTKHCDNQCKSWEGAKHGACHKRNGKWKCFCYFNC (Defensin like) [L10-51]”, the “Activity (1): antifungal activity” value was “++ (++ indicates a >5- to 10-fold improvement)”.

Regarding “NLCERASKTWTGNCGNTKHCDNQCKSWEGAKHGACHKRSGKWKCFCYFNC (Defensin like) [L9-04]”, the “Activity (1): antifungal activity” value was “++ (++ indicates a >5- to 10-fold improvement)”.

On to “NLCERASKTWTGNCGNTKHCDNQCKSWEGAKHGACHVRNGKWKCFCYFNC (Defensin like) [L10-64]”, for which the “Activity (1): antifungal activity” value is on record as “++ (++ indicates a >5- to 10-fold improvement)”.

As for “NLCERASKTWTGNCGNTKHCDNQCKSWEGAKHGACHVRSGKHKCFCYFNC (Defensin like) [L5-37]”, the “Activity (1): antifungal activity” value is “++ (++ indicates a >5- to 10-fold improvement)”.

For the substance “NLCERASKTWTGNCGNTKHCDNQCRNWEGAAHGACHKRNGKWKCFCYFNC (Defensin like) [L6-45]”, the “Activity (1): antifungal activity” value is reported as “++ (++ indicates a >5- to 10-fold improvement)”.

Regarding “NLCERASKTWTGNCGNTKHCDNQCRNWEGAKHGACHKRNGKWKCFCYFNC (Defensin like) [L9-12]”, the “Activity (1): antifungal activity” value is “+++ (+++ indicates a >10-fold improvement)”.

As to “NLCERASKTWTGNCGNTKHCDNQCRNWEGAKHGACHVRNGKHKCFCYFNC (Defensin like) [L6-35]”, the “Activity (1): antifungal activity” value was “++ (++ indicates a >5- to 10-fold improvement)”.

Take “NLCERASKTWTGNCGNTKHCDNQCRNWEGAKHGACHVRNGKWKCFCYFNC (Defensin like) [L6-07]”: the “Activity (1): antifungal activity” value is listed as “+++ (+++ indicates a >10-fold improvement)”.

Take “NLCERASKTWTGNCGNTKHCDNQCRNWEGAKHGACHVRSGKHKCFCYFNC (Defensin like) [L6-20]”: the “Activity (1): antifungal activity” value is “++ (++ indicates a >5- to 10-fold improvement)”.

Staying with this assay, now noted: Table 2C (mixed diversity library); improvement compared to reference defensin protein DmAMP.
On to “---NLCERASKTWSGHCGNTKHCDNQCRNWEGAKHGACHKRNGKWKCFCYFNC (Defensin like) [L7-11]”, for which the “Activity (1): antifungal activity” value is on record as “++ (++ indicates a >5- to 10-fold improvement)”.

Turning to “---NLCERPSKTWTGHCGNTKHCDKQCKSWEGAKHGACHVRSGKWKCFCYFNC (Defensin like) [L7-26]”, the “Activity (1): antifungal activity” value is on record as “++ (++ indicates a >5- to 10-fold improvement)”.

In the case of “--QKLCEKASKTWTGNCGNTKHCDKQCRSWEKAKHGACHVRNGKWKCFCYFNC (Defensin like) [L7-59]”, the “Activity (1): antifungal activity” value is listed as “++ (++ indicates a >5- to 10-fold improvement)”.

In the case of “--QKLCEKASQTWTGHCGNTKHCDNQCRNWEKAAHGACHVRNGKWKCFCYFNC (Defensin like) [L7-19]”, the “Activity (1): antifungal activity” value is given as “+ (+ indicates a 1- to 5-fold improvement in activity compared to a reference defensin protein)”.

As to “--QKLCERASKTWTGHCGNTKHCDKQCKNWEKAKHGACHVRNGKWKCFCYFNC (Defensin like) [L7-34]”, the “Activity (1): antifungal activity” value is reported as “+ (+ indicates a 1- to 5-fold improvement in activity compared to a reference defensin protein)”.

“--QKLCERPSQTWTGHCGNTKHCDKQCKNWEGAKHGACHVRNGKWKCFCYFNC (Defensin like) [L7-89]”: the “Activity (1): antifungal activity” value was “+ (+ indicates a 1- to 5-fold improvement in activity compared to a reference defensin protein)”.

Turning to “--QKLCERPSQTWTGHCGNTKHCDTQCKSWEGAKHGACHKRNGKWKCFCYFNC (Defensin like) [L7-44]”, the “Activity (1): antifungal activity” value is given as “+ (+ indicates a 1- to 5-fold improvement in activity compared to a reference defensin protein)”.

As for “DGVKLCEKASQTWTGNCGNTKHCDNQCKNWEKAKHGACHKRSGKWKCFCYFNC (Defensin like) [L7-42]”, the “Activity (1): antifungal activity” value is recorded as “+ (+ indicates a 1- to 5-fold improvement in activity compared to a reference defensin protein)”.

Take “DGVKLCEKPSKTWSGHCGNTKHCDKQCKNWEKAKHGACHKRNGKWKCFCYFNC (Defensin like) [L7-113]”: the “Activity (1): antifungal activity” value is recorded as “+ (+ indicates a 1- to 5-fold improvement in activity compared to a reference defensin protein)”.

Turning to “DGVKLCEKPSQTWSHCGNTKHCDNQCKNWEGAAHGACHKRSGKWKCFCYFNC (Defensin like) [L7-231]”, the “Activity (1): antifungal activity” value was “++ (++ indicates a >5- to 10-fold improvement)”.

In the case of “DGVKLCEKPSQTWTGHCGNTKHCDKQCKNWEGAKHGACHKRNGKWKCFCYFNC (Defensin like) [L7-178]”, the “Activity (1): antifungal activity” value was “++ (++ indicates a >5- to 10-fold improvement)”.

As to “DGVKLCEKPSQTWTGNCGNTKHCDKQCRNWEKAKHGACHKRNGKWKCFCYFNC (Defensin like) [L7-46]”, the “Activity (1): antifungal activity” value is listed as “+ (+ indicates a 1- to 5-fold improvement in activity compared to a reference defensin protein)”.

Take “DGVKLCERASKTWSGHCGNTKHCDKQCKNWEKAKHGACHKRSGKWKCFCYFNC (Defensin like) [L7-219]”: the “Activity (1): antifungal activity” value is listed as “+ (+ indicates a 1- to 5-fold improvement in activity compared to a reference defensin protein)”.

For the substance “DGVKLCERASKTWSGHCGNTKHCDNQCRSWEGAKHGACHVRSGKHKCFCYFNC (Defensin like) [L7-213]”, the “Activity (1): antifungal activity” value is “++ (++ indicates a >5- to 10-fold improvement)”.

Regarding “DGVKLCERASKTWTGHCGNTKHCDKQCKNWEKAAHGACHVRNGKWKCFCYFNC (DGVKLCERASKTWSGHCGNTKHCDKQCKNWEKAAHGACHVRNGKWKCFCYFSC; Defensin like) [L7-93]”, the “Activity (1): antifungal activity” value is “+++ (+++ indicates a >10-fold improvement)”.

On to “DGVKLCERASKTWTGNCGNTKHCDKQCKNWEGAKHGACHKRNGKWKCFCYFNC (Defensin like) [L7-107]”, for which the “Activity (1): antifungal activity” value is “+ (+ indicates a 1- to 5-fold improvement in activity compared to a reference defensin protein)”.

As for “DGVKLCERASKTWTGNCGNTKHCDNQCKSWEGAKHGACHVRNGKHKCFCYFNC (Defensin like) [L7-76]”, the “Activity (1): antifungal activity” value is on record as “++ (++ indicates a >5- to 10-fold improvement)”.

For the substance “DGVKLCERASQTWSGHCGNTKHCDKQCKNWEKAAHGACHVRSGKWKCFCYFNC (Defensin like) [L7-14]”, the “Activity (1): antifungal activity” value is on record as “++ (++ indicates a >5- to 10-fold improvement)”.

With “DGVKLCERASQTWTGHCGNTKHCDKQCKSWEKAKHGACHVRNGKWKCFCYFNC (Defensin like) [L7-15]”, the “Activity (1): antifungal activity” value was “++ (++ indicates a >5- to 10-fold improvement)”.

Regarding “DGVKLCERPSQTWSGNCGNTKHCDKQCRNWEKAKHGACHKRNGKWKCFCYFNC (Defensin like) [L7-123]”, the “Activity (1): antifungal activity” value is “+ (+ indicates a 1- to 5-fold improvement in activity compared to a reference defensin protein)”.

“DGVKLCERPSQTWTGHCGNTKHCDKQCRNWEGAAHGACHKRSGKWKCFCYFNC (Defensin like) [L7-83]”: the “Activity (1): antifungal activity” value is “++ (++ indicates a >5- to 10-fold improvement)”.

Take “DGVKLCERPSQTWTGNCGNTKHCDKQCKSWEGAKHGACHKRNGKWKCFCYFNC (Defensin like) [L7-99]”: the “Activity (1): antifungal activity” value was “+ (+ indicates a 1- to 5-fold improvement in activity compared to a reference defensin protein)”.
